Source: US20120328516A1, “METHOD OF RADIOTHERAPY USING A RADIOLABELLED RGD PEPTIDE” (priority 2009, published 2012)
Starred links: 1 amine or outer side, 2 acyl side, 3 side chain; linkers in the order of their positions; H or OH if unused. Positions of bridges follow the written chain, without caps; N, C: chain ends. Residues, ends and D or L forms follow the SMILES beside them. Groups on a side chain read outwards from the residue. *: point of attachment. X3 = C/C(=N/O)C(C)(C)NCCC(CCNC(C)(C)/C(C)=N\O)CCN*; Glutaryl = O=C(CCCC(=O)[*:2])[*:1]; X2 = NC(=O)COCC(=O)NCCOCCOCCOCCN*

Key:
subcutaneous U87 tumour = assay: co-registered coronal micro-PET/CT imaging of mouse bearing a subcutaneous U87 tumour; assay type: in vivo, C57/BI6 mouse; settings: same mouse imaged with ^18F-FDG (3A) and ^18F-fluciclatide (3B); comparison of the two images
Description: FIGS. 3A and 3B show co-registered coronal micro-PET/CT images of the same C57/BI6 mouse bearing a subcutaneous U87 tumour on its left side. The emission image in 3A is that of ^18F-FDG and that in 3B is of ^18F-fluciclatide.

alphavbeta3/5 integrins = assay: co-registered contrast-enhanced CT and SPECT emission imaging of a necrotic lymph node metastasis for a primary breast cancer; assay type: in vivo
Description: The emission image was obtained for ^99mTc-maraciclatide. The necrotic centre in the CT image which corresponds to no uptake of the agent in the SPECT image.

| Structure (SMILES) | tumour uptake volume (subcutaneous U87 tumour) | uptake of the agent in the necrotic centre (alphavbeta3/5 integrins; SPECT image, necrotic centre of lymph node metastasis seen in CT image) | uptake in the sternum (alphavbeta3/5 integrins; concluded to be due to bone marrow uptake) | region surrounding the necrotic centre due to angiogenesis and other expressions of alphavbeta3/5 integrins (alphavbeta3/5 integrins; emission image co-registered with CT) |
| --- | --- | --- | --- | --- |
| OC[C@H]1OC(O)[C@H](F)[C@@H](O)[C@@H]1O (stereo partly shown) [^18F-FDG, fluorodeoxyglucose, reference compound] | difference in tumour uptake volumes |  |  |  |
| C/C(=N/O)C(C)(C)NCCC(CCNC(=O)CCCC(=O)NCCCC[C@@H]1NC(=O)CSC[C@@H](C(=O)NCCOCCOCCOCCNC(=O)COCC(N)=O)NC(=O)[C@H](Cc2ccccc2)NC(=O)[C@@H]2CSSC[C@H](NC1=O)C(=O)N[C@@H](CCCNC(=N)N)C(=O)NCC(=O)N[C@@H](CC(=O)O)C(=O)N2)CCNC(C)(C)/C(C)=N\O (stereo partly shown) [^99mTc-maraciclatide, metal not drawn] ({CH2CO}-K([Glutaryl-X3])CRGDCFC-X2; disulfide 2-6; thioether N-8) |  | no uptake | uptake in the sternum | highlighted |
